Source: patent publication US7692030B2, “Conjugates of artemisinin-related endoperoxides and hydrazone derivatives for the treatment of cancer” (University of Washington, priority 2006, dated 2010)

How the values were obtained:
Test in all cases: NCI DTP human tumor cell line screen (SRB)
Type in all cases: cell-based
[1] = system: 786-0; conditions: Renal Cancer, 10 μM, 48 h
Protocol: (§1) Representative compounds of the invention, prepared as described in EXAMPLES 1-6, were submitted to the Developmental Therapeutics Program of the United States National Cancer Institute (NCl) to screen for anti-cancer activity. The anti-cancer activities of the six compounds were tested against approximately 60 human tumor cell lines representing leukemia, melanoma, and cancers of the lung, colon, breast, ovary, kidney, prostate, and brain. The following screening methodology was provided by the NCl. […] For experimental screens, cells were inoculated into 96 well microtiter plates in 100 μL at plating densities ranging from 5,000 to 40,000 cells/well depending on the doubling time of individual cell lines. After cell inoculation, the microtiter plates were incubated at 37° C., 5% carbon dioxide, 95% air and 100% relative humidity for 24 hours prior to addition of the compounds. After 24 hours of incubation, two plates of each cell line were fixed in situ with trichloroacetic acid (TCA) to represent a measurement of the cell population for each cell line at the time of compound addition (Tz). The compounds were solubilized in dimethyl sulfoxide at 400-fold the desired final maximum test concentration and stored frozen prior to use. At the time of drug addition, frozen aliquots of the compounds thawed and diluted with complete medium containing 50 μg/ml gentamicin. Aliquots of 100 μl of these different compound dilutions were added to the appropriate microtiter wells already containing 100 μl of medium, resulting in the required final compound concentration of 10 μM. Following compound addition, the plates were incubated for an additional 48 h at 37° C., 5% carbon dioxide, 95% air, and 100% relative humidity. For adherent cells, the assay was terminated by the addition of cold TCA. Cells were fixed in situ by the gentle addition of 50 μl of cold 50% (w/v) TCA (final concentration, 10% TCA) and incubated for 60 minutes at 4° C. The supernatant was discarded, and the plates were washed five times with tap water and air dried. Sulforhodamine B (SRB) solution (100 μl) at 0.4% (w/v) in 1% acetic acid was added to each well, and plates were incubated for 10 minutes at room temperature. After staining, unbound dye was removed by washing five times with 1% acetic acid and the plates were air dried. Bound stain was subsequently solubilized with 10 mM trizma base, and the absorbance was read on an automated plate reader at a wavelength of 515 nm. For suspension cells, the methodology was the same except that the assay was terminated by fixing settled cells at the bottom of the wells by gently adding 50 μl of 80% TCA (final concentration, 16% TCA). Using the three absorbance measurements [time zero, (Tz), control growth, (C), and test growth in the presence of compound (Ti)], the percentage growth was calculated at each of the compound concentrations levels. Percentage growth inhibition was calculated with the following algorithms: [(Ti−Tz)/(C−Tz)]×100 for concentrations for which Ti>/=Tz [(Ti−Tz)/Tz]×100 for concentrations for which Ti<Tz The results of the NCl in vitro anticancer screening with six compounds against various human tumor cell lines are presented below in Tables 2-7. […] The growth percent mean, delta, and range for each compound are given below.

[2] = system: ACHN; conditions: Renal Cancer, 10 μM, 48 h
Protocol: as §1

[3] = system: BT-549; conditions: Breast Cancer, 10 μM, 48 h
Protocol: as §1

[4] = system: CAKI-1; conditions: Renal Cancer, 10 μM, 48 h
Protocol: as §1

[5] = system: COLO 205; conditions: Colon Cancer, 10 μM, 48 h
Protocol: as §1

[6] = system: EKVX; conditions: Non-Small Cell Lung Cancer, 10 μM, 48 h
Protocol: as §1

[7] = system: HCC-2998; conditions: Colon Cancer, 10 μM, 48 h
Protocol: as §1

[8] = system: HCT-116; conditions: Colon Cancer, 10 μM, 48 h
Protocol: as §1

[9] = system: HCT-15; conditions: Colon Cancer, 10 μM, 48 h
Protocol: as §1

[10] = system: HOP-92; conditions: Non-Small Cell Lung Cancer, 10 μM, 48 h
Protocol: as §1

[11] = system: K-562; conditions: Leukemia, 10 μM, 48 h
Protocol: as §1

[12] = system: MDA-MB-435; conditions: Breast Cancer, 10 μM, 48 h
Protocol: as §1

[13] = system: MOLT-4; conditions: Leukemia, 10 μM, 48 h
Protocol: as §1

[14] = system: NCI-H226; conditions: Non-Small Cell Lung Cancer, 10 μM, 48 h
Protocol: as §1

[15] = system: NCI-H23; conditions: Non-Small Cell Lung Cancer, 10 μM, 48 h
Protocol: as §1

[16] = system: NCI-H460; conditions: Non-Small Cell Lung Cancer, 10 μM, 48 h
Protocol: as §1

[17] = system: OVCAR-3; conditions: Ovarian Cancer, 10 μM, 48 h
Protocol: as §1

[18] = system: OVCAR-4; conditions: Ovarian Cancer, 10 μM, 48 h
Protocol: as §1

[19] = system: OVCAR-5; conditions: Ovarian Cancer, 10 μM, 48 h
Protocol: as §1

[20] = system: PC-3; conditions: Prostate Cancer, 10 μM, 48 h
Protocol: as §1

[21] = system: SF-295; conditions: CNS Cancer, 10 μM, 48 h
Protocol: as §1

[22] = system: SF-539; conditions: CNS Cancer, 10 μM, 48 h
Protocol: as §1

[23] = system: SK-MEL-2; conditions: Melanoma, 10 μM, 48 h
Protocol: as §1

[24] = system: SK-MEL-5; conditions: Melanoma, 10 μM, 48 h
Protocol: as §1

[25] = system: SK-OV-3; conditions: Ovarian Cancer, 10 μM, 48 h
Protocol: as §1

[26] = system: SN12C; conditions: Renal Cancer, 10 μM, 48 h
Protocol: as §1

[27] = system: SNB-19; conditions: CNS Cancer, 10 μM, 48 h
Protocol: as §1

[28] = system: SNB-75; conditions: CNS Cancer, 10 μM, 48 h
Protocol: as §1

[29] = system: T-47D; conditions: Breast Cancer, 10 μM, 48 h
Protocol: as §1

[30] = system: U251; conditions: CNS Cancer, 10 μM, 48 h
Protocol: as §1

[31] = system: UACC-257; conditions: Melanoma, 10 μM, 48 h
Protocol: as §1

[32] = system: UO-31; conditions: Renal Cancer, 10 μM, 48 h
Protocol: as §1

Row | Compound | Growth Percent [1] [%] | Growth Percent [2] [%] | Growth Percent [3] [%] | Growth Percent [4] [%] | Growth Percent [5] [%] | Growth Percent [6] [%] | Growth Percent [7] [%] | Growth Percent [8] [%] | Growth Percent [9] [%] | Growth Percent [10] [%] | Growth Percent [11] [%] | Growth Percent [12] [%] | Growth Percent [13] [%] | Growth Percent [14] [%] | Growth Percent [15] [%] | Growth Percent [16] [%] | Growth Percent [17] [%] | Growth Percent [18] [%] | Growth Percent [19] [%] | Growth Percent [20] [%] | also measured
1 | CC1CCC2C(C)C(OCc3ccc(C(=O)NN=Cc4ccccc4O)nc3)OC3OC4(C)CCC1C32OO4 (stereo not drawn) [ART-Pyr-Sal, N′-(2-hydroxybenzylidene)-5-(dihydroxyartemisinin-methyl)-2-pyridine carbohydrazide] | −17.58 | 10.64 | 15.65 | 18.48 | 30.63 | 32.52 | 4.91 | 18.34 | 21.89 | 30.70 | 26.88 | 30.18 | 10.13 | 1.83 | 16.47 | 0.12 | 35.18 | 23.04 | 55.16 | 21.62 | Growth Percent [21]: 4.52%; Growth Percent [22]: −29.69%; Growth Percent [23]: −23.42%; Growth Percent [24]: −18.98%; Growth Percent [25]: 11.40%; Growth Percent [26]: 22.81%; Growth Percent [27]: 20.71%; Growth Percent [28]: −6.97%; Growth Percent [29]: 12.21%; Growth Percent [30]: 14.70%; Growth Percent [31]: 6.22%; Growth Percent [32]: 0.04%
2 | CC1CCC2C(C)C(OCc3ccc(C(=O)NN=Cc4ccccc4)cc3)OC3OC4(C)CCC1C32OO4 (stereo not drawn) [ART-Phe-Bz, N′-(benzylidene)-4-(dihydroxyartemisinin-methyl)-phenyl carbohydrazide] | 26.79 | 16.91 | 14.60 | 5.53 | 17.72 | 16.45 | 22.05 | 5.59 | 16.27 | 2.94 | 7.86 | 12.48 | −25.73 | 29.10 | 30.10 | 32.58 | 11.56 | 18.29 | 28.19 | 12.32 | Growth Percent [21]: 14.30%; Growth Percent [22]: 25.70%; Growth Percent [23]: −3.22%; Growth Percent [24]: 2.01%; Growth Percent [25]: 53.03%; Growth Percent [26]: 23.38%; Growth Percent [27]: 51.29%; Growth Percent [28]: 0.39%; Growth Percent [29]: 11.51%; Growth Percent [30]: 36.35%; Growth Percent [31]: 25.96%; Growth Percent [32]: −21.11%
3 | CC1CCC2C(C)C(OCc3ccc(C(=O)NN=Cc4ccccc4O)cc3)OC3OC4(C)CCC1C32OO4 (stereo not drawn) [ART-Phe-Sal, N′-(2-hydroxybenzylidene)-4-(dihydroxyartemisinin-methyl)-phenyl carbohydrazide] | −12.09 | 10.40 | 25.29 | 11.04 | 26.59 | 28.62 | 37.90 | 13.24 | 32.15 | 56.27 | 8.87 | 15.04 | −30.65 | 10.80 | 31.01 | 0.59 | 29.79 | 17.87 | 49.55 | 31.46 | Growth Percent [21]: −2.87%; Growth Percent [22]: −18.69%; Growth Percent [23]: −20.76%; Growth Percent [24]: −56.71%; Growth Percent [25]: 17.00%; Growth Percent [26]: 25.25%; Growth Percent [27]: 27.53%; Growth Percent [28]: −16.75%; Growth Percent [29]: 34.12%; Growth Percent [30]: 17.18%; Growth Percent [31]: 22.90%; Growth Percent [32]: −17.67%
